Laboratory results reported in patent publication US8450454B2, “Compositions for inhibiting ABAD/ABeta protein interaction” (The Trustees of Columbia University in the City of New York, priority 2004, dated 2013).
Ends that are not written are not given here.

T1: ABAD (Homo sapiens, UniProt Q99714)
T1 construct: made in house
T1 sequence (Q99714 1-261): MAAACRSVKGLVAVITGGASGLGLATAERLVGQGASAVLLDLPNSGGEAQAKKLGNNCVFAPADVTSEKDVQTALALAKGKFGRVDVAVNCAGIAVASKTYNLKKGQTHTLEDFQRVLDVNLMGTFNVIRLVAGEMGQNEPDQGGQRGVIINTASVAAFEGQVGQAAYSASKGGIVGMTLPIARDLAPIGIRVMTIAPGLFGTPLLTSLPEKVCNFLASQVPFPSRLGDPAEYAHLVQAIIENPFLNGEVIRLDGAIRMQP

B1: S98A, K99A, Y101A: site-directed ABAD mutant (protein, UniProt Q99714 2-261, looked up, variant S98A K99A Y101A)
3-hydroxyacyl-CoA …: AAACRSVKGLVAVITGGASGLGLATAERLVGQGASAVLLDLPNSGGEAQAKKLGNNCVFAPADVTSEKDVQTALALAKGKFGRVDVAVNCAGIAVAAATANLKKGQTHTLEDFQRVLDVNLMGTFNVIRLVAGEMGQNEPDQGGQRGVIINTASVAAFEGQVGQAAYSASKGGIVGMTLPIARDLAPIGIRVMTIAPGLFGTPLLTSLPEKVCNFLASQVPFPSRLGDPAEYAHLVQAIIENPFLNGEVIRLDGAIRMQP
B2: GST-ABAD(1-186): GST-ABAD truncation mutant, residues 1-186 (protein)
chain: MAAACRSVKGLVAVITGGASGLGLATAERLVGQGASAVLLDLPNSGGEAQAKKLGNNCVFAPADVTSEKDVQTALALAKGKFGRVDVAVNCAGIAVASKTYNLKKGQTHTLEDFQRVLDVNLMGTFNVIRLVAGEMGQNEPDQGGQRGVIINTASVAAFEGQVGQAAYSASKGGIVGMTLPIARDL
modifications: left off: a dimerising Fc or GST
B3: GST-ABAD(1-158): GST-ABAD truncation mutant, residues 1-158 (protein)
chain: MAAACRSVKGLVAVITGGASGLGLATAERLVGQGASAVLLDLPNSGGEAQAKKLGNNCVFAPADVTSEKDVQTALALAKGKFGRVDVAVNCAGIAVASKTYNLKKGQTHTLEDFQRVLDVNLMGTFNVIRLVAGEMGQNEPDQGGQRGVIINTASVAA
modifications: left off: a dimerising Fc or GST
B4: GST-ABAD(159-261): GST-ABAD truncation mutant, residues 159-261 (protein)
chain: FEGQVGQAAYSASKGGIVGMTLPIARDLAPIGIRVMTIAPGLFGTPLLTSLPEKVCNFLASQVPFPSRLGDPAEYAHLVQAIIENPFLNGEVIRLDGAIRMQP
modifications: left off: a dimerising Fc or GST

Experiments:
cultured neurons [1] = assay: DNA fragmentation (Cell Death Detection ELISA) in cultured neurons; type: cell-based, mouse; details: neurons from Tg mAPP/ABAD mice (spontaneous) and Tg ABAD mice exposed to Aβ, peptide pretreatment
cultured neurons [2] = assay: LDH release from cultured neurons; type: cell-based, mouse; details: neurons from Tg mAPP/ABAD mice (spontaneous) and Tg ABAD mice exposed to Aβ, peptide pretreatment
ABAD = molecular target: T1, ABAD; assay: Binding of fluorescein-labeled ABAD to amyloid-related peptide immobilized on microtiter wells
[3] = molecular target: T2, ABAD-Aβ (1-40) interaction (Homo sapiens, UniProt P05067); assay: Surface plasmon resonance (Biacore): inhibition of Aβ (1-40) binding to immobilized ABAD; details: one-site competitive inhibition fit
T2 construct: made in house
T2 sequence (P05067 672-711): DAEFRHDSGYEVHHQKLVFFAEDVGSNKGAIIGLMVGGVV
Description: (§1) 3) and ABAD reverse peptide (ABAD-RP, residues 120-92) were synthesized by Biotechnology Lab at Yale University. For binding studies, ABAD was immobilized on CM5 sensor chip (29). […] The reaction/binding buffer contained 50 mM Hepes at pH 7.4, 0.15 M NaCl, 1 mM EDTA, and 0.005% Tween 20. Data analysis was performed using Biacore X biosensor system (Uppsala, Sweden) and BIA evaluation 3.0 software (Biacore, Sweden). Response data are plotted in Resonance Units versus ABAD peptide concentrations (nM), and were fit to a one-site model for competitive inhibition to obtain the Ki.

[4] = molecular target: T3, ABAD-Aβ (1-42) interaction (Homo sapiens, UniProt P05067); assay: Surface plasmon resonance (Biacore): inhibition of Aβ (1-42) binding to immobilized ABAD; details: one-site competitive inhibition fit
T3 construct: made in house
T3 sequence (P05067 672-713): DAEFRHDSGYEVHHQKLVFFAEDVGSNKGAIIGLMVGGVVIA
Description: as §1

Aβ (1-42) = Aβ (1-42) (Homo sapiens, UniProt P05067); assay: Binding of 125I-labeled GST-ABAD or ABAD mutants to immobilized Aβ (1-42); parameters: key: +: Specific binding comparable to that observed with wild type ABAD; −: No observed specific binding; details: 125I-labeled GST-ABAD or ABAD to immobilized Aβ (1-42)
Sequence of Aβ (1-42) (P05067 672-713): as above

Aβ (1-40) = Aβ (1-40) (Homo sapiens, UniProt P05067); assay: Surface plasmon resonance: Aβ (1-40) binding to immobilized wild-type or mutant ABAD; details: ABAD immobilized on sensor chip, Aβ (1-40) mobile phase
Sequence of Aβ (1-40) (P05067 672-711): as the sequence (P05067 672-711) above
Description: as §1, with “[…]; SEQ ID NO. 3)” for “3)”

| Molecule | binding to ABAD (in words) (ABAD) | Aβ Binding (Aβ (1-42)) | further results |
| --- | --- | --- | --- |
| CC[C@H](C)[C@H](NC(=O)CNC(=O)[C@H](C)N)C(=O)N[C@@H](C)C(=O)N[C@H](C(=O)N[C@@H](C)C(=O)N[C@@H](CO)C(=O)N[C@@H](CCCCN)C(=O)N[C@H](C(=O)N[C@@H](Cc1ccc(O)cc1)C(=O)N[C@@H](CC(N)=O)C(=O)N[C@@H](CC(C)C)C(=O)N[C@@H](CCCCN)C(=O)N[C@@H](CCCCN)C(=O)NCC(=O)N[C@@H](CCC(N)=O)C(=O)N[C@H](C(=O)N[C@@H](Cc1c[nH]cn1)C(=O)N[C@H](C(=O)N[C@@H](CC(C)C)C(=O)N[C@@H](CCC(=O)O)C(=O)N[C@@H](CC(=O)O)C(=O)N[C@@H](Cc1ccccc1)C(=O)N[C@@H](CCC(N)=O)C(=O)N[C@@H](CCCNC(=N)N)C(=O)N[C@H](C(=O)N[C@@H](CC(C)C)C(=O)N[C@@H](CC(=O)O)C(=O)N[C@H](C(=O)O)C(C)C)C(C)C)[C@@H](C)O)[C@@H](C)O)[C@@H](C)O)C(C)C [ABAD-DP] |  |  | DNA fragmentation (cytotoxicity) (cultured neurons [1]): attenuated cytotoxicity; LDH release (cytotoxicity) (cultured neurons [2]): attenuated cytotoxicity |
| CC[C@H](C)[C@H](NC(=O)[C@H](C)NC(=O)CNC(=O)[C@H](Cc1ccccc1)NC(=O)[C@H](CC(N)=O)NC(=O)[C@H](CC(N)=O)NC(=O)[C@H](CO)NC(=O)[C@H](CO)NC(=O)[C@H](Cc1c[nH]cn1)NC(=O)[C@@H](NC(=O)[C@H](CC(C)C)NC(=O)[C@H](Cc1ccccc1)NC(=O)[C@H](CC(N)=O)NC(=O)[C@H](C)NC(=O)[C@H](CC(C)C)NC(=O)[C@H](CCCNC(=N)N)NC(=O)[C@H](CCC(N)=O)NC(=O)[C@@H](NC(=O)[C@H](C)NC(=O)[C@@H]1CSSC[C@H](NC(=O)[C@@H](N)CCCCN)C(=O)N[C@@H](CC(N)=O)C(=O)N[C@@H]([C@@H](C)O)C(=O)N[C@@H](C)C(=O)N[C@@H]([C@@H](C)O)C(=O)N1)[C@@H](C)O)C(C)C)C(=O)N[C@@H](CC(C)C)C(=O)N[C@@H](CO)C(=O)N[C@@H](CO)C(=O)N[C@H](C(=O)N[C@@H](CC(N)=O)C(=O)N[C@H](C(=O)NCC(=O)N[C@@H](CO)C(=O)N[C@@H](CC(N)=O)C(=O)N[C@H](C(=O)N[C@@H](Cc1ccc(O)cc1)C(N)=O)[C@@H](C)O)C(C)C)[C@@H](C)O [Amylin] | did not bind |  |  |
| CC(C)C[C@H](NC(=O)[C@H](CCCCN)NC(=O)[C@H](CCC(N)=O)NC(=O)[C@H](Cc1c[nH]cn1)NC(=O)[C@H](Cc1c[nH]cn1)NC(=O)[C@@H](NC(=O)[C@H](CCC(=O)O)NC(=O)[C@H](Cc1ccc(O)cc1)NC(=O)CNC(=O)[C@H](CO)NC(=O)[C@H](CC(=O)O)NC(=O)[C@H](Cc1c[nH]cn1)NC(=O)[C@H](CCCNC(=N)N)NC(=O)[C@H](Cc1ccccc1)NC(=O)[C@H](CCC(=O)O)NC(=O)[C@H](C)NC(=O)[C@@H](N)CC(=O)O)C(C)C)C(=O)N[C@H](C(=O)N[C@@H](Cc1ccccc1)C(=O)N[C@@H](Cc1ccccc1)C(=O)O)C(C)C [Aβ 1-20] | dose-dependent binding |  |  |
| GSNKGAIIGLM [Aβ 25-35] | no specific binding |  | Kd (ABAD; peptide immobilized on microtiter wells, fluorescein-labeled ABAD added): > 1000 nM |
| VDLVRQFDELTHTQGKKLNYTKSAVAIGA [ABAD-RP, reference compound] |  |  | inhibitory constant, binding of Aβ (1-40) to immobilized intact ABAD [3]: completely inactive; DNA fragmentation (cytotoxicity) (cultured neurons [1]): not; inhibitory constant, binding of Aβ (1-42) to immobilized intact ABAD [4]: completely inactive |
| B1 |  | − | interaction with Aβ in surface plasmon resonance (Aβ (1-40)): no specific interaction |
| B2 |  | + |  |
| B3 |  | + |  |
| B4 |  | − |  |
